This note sets out measurements from patent EP0126970A2, “Anxiolytic and anti-depressant thienopyridine derivatives” (BEECHAM GROUP PLC, priority 1983, dated 1984).

Counter-ions that a name gives are not always drawn. Where only a bound is given, the exact number is not on record here.

Test [1] concerns the target benzodiazepine receptors. Put plainly: Radioligand binding, displacement of [3H]-Flunitrazepam. To be noted: rat whole brain membranes, 0.5nM [3H] ligand; read-out: [^3H]-Flu Ki. The protocol:
(§1) An interaction with benzodiazepine receptors in the central nervous system may be indicative of anxiolytic activity since inhibition of benzodiazepine binding correlates with the clinical efficacy of benzodiazepines. [^3H]-Flunitrazepam and [^3H]-βCCE selectively label benzodiazepine receptors and displacement of this specific binding in vitro by novel compounds in well-washed, frozen rat whole brain membranes is measured essentially as described by Martin and Candy (1978). At the fixed concentration of 0.5nM used, specific binding of both [^3H] ligands represents 80-90% of the total radioactivity bound. Non-specific binding is defined by 10µM clonazepam for each ligand. IC50 values are calculated from log [dose] against % inhibition curves; Ki values are determined using the Cheng-Prusoff equation.

Test [2] concerns the target benzodiazepine receptors. The test can be described thus: Radioligand binding, displacement of [3H]-βCCE. To be noted: rat whole brain membranes, 0.5nM [3H] ligand. The protocol:
as §1
(In general: Loss of bound radioactivity is the signal in a displacement assay; it reports binding, not function.)

`CCOC(=O)c1c(C)nc2ccsc2c1NNc1ccccc1` [Example E10, 5-Methyl-7-(2-phenylhydrazino)-thieno[3,2-b]pyridine-6-carboxylic acid, ethyl ester, monohydrochloride]: the figures for the Ki on benzodiazepine receptors [1] and at benzodiazepine receptors [2] were 39000 nM and 23000 nM, respectively. In the case of `Cc1ccc(-n2nc3c4sccc4[nH]cc-3c2=O)cc1` [Example E23, 2,5-Dihydro-2-(4-methylphenyl)-3H-pyrazolo[3,4-d]thieno [3,2-b]pyridin-3-one], the results for the Ki on benzodiazepine receptors [1] and on benzodiazepine receptors [2] were 0.82 nM and 0.31 nM, respectively.

With `O=c1c2c[nH]c3ccsc3c-2nn1-c1cc(Cl)cc(Cl)c1` [Example E22, 2-(3,5-Dichlorophenyl)-2,5-dihy dro-3H-pyrazolo[3,9-d] thieno[3,2-b]pyrirlin-3-one], the inhibition constant (Ki) (in general, a measure of affinity in units of concentration, obtained from inhibition or displacement) at benzodiazepine receptors [1] was found to be 180 nM; at benzodiazepine receptors [2], 170 nM. Turning to `COc1ccc(-n2nc3c4sccc4[nH]cc-3c2=O)cc1` [Example E24, 2,5-Dihydro-2-(4-methoxyphenl)-3H-pyrazolo[3,4-d]thieno [3,2-b]pyridin-3-one], on benzodiazepine receptors [1], the Ki was determined as 0.23 nM. Take `CCOC(=O)c1c(C)nc2ccsc2c1NNc1ccc(Cl)cc1` [Example E11, 7-(2-(4-Chlorophenyl)hydrazino)-5-methyl-thieno[3,2-b] pyridine-6-carboxylic acid, ethyl estet, monohydrochloride]: the results for the inhibition constant Ki at benzodiazepine receptors [1] and at benzodiazepine receptors [2] were 200 nM and 290 nM, respectively. The corresponding values for `CCOC(=O)c1cnc2ccsc2c1NNc1ccc(C)cc1` [Example E5, 7-(2-(4-Methylphenyl)hyarazino)-thieno[3,2-b]pyridine-6-carboxylic acid, ethyl ester, tnonohydrochloride] are 6500 nM and more than 100000 nM. For the compound `CCOC(=O)c1cnc2ccsc2c1NNc1ccccc1` [Example E1, 7-(2-Phenylhydrazino)-thieno[3,2-b]pyridine-6-carboxylic acid, ethyl ester, monohydrochloride], the Ki on benzodiazepine receptors [1] stood at 7000 nM; at benzodiazepine receptors [2], 5000 nM. `Cc1[nH]c2ccsc2c2nn(-c3ccc(Cl)cc3)c(=O)c1-2` [Example E20, 2-(4-Chlorophenyl)-2,5-dihydro-4-methyl-3H-pyrazolo [3,4-d]thieno[3,2-b]pyridin-3-one]: the results for the Ki on benzodiazepine receptors [1] and on benzodiazepine receptors [2] were 1000 nM and 2200 nM, respectively. Consider `O=c1c2c[nH]c3cscc3c-2nn1-c1ccc(Cl)cc1` [Example E31, 2-(4-Chlorophenyl)-2,5-dihydro-3H-pyrazolo[3,4-d]thieno [3,4-b]pyridin-3-one], for which the Ki on benzodiazepine receptors [1] is 0.32 nM. For the compound `CCOC(=O)c1cnc2ccsc2c1NNc1ccc(OC)cc1` [Example E8, 7-{2-(4-Methoxyphenyl)hydrazino)-thieno[3,2-b]pyridine-6-carboxylic acid, ethyl ester, monbhydrochloride], the inhibitory constant (Ki) on benzodiazepine receptors [1] turned out to be 2400 nM; on benzodiazepine receptors [2], 3300 nM. Consider `CCc1cc2c3nn(-c4ccc(Cl)cc4)c(=O)c-3c(C)[nH]c2s1` [Example E29, 2-(4-Chlorophenyl)-2,5-dihydro-7-ethyl-4-methyl-3H-pyrazolo[3,4-d]thieno[2,3-b]pyridin-3-one], for which, on benzodiazepine receptors [1], the Ki was 568 nM. `CCOC(=O)c1cnc2ccsc2c1NNc1ccccn1` [Example E6, 7-(2-(2-Pyridyl)hydrazino)-thieno[3,2-b]pyridihe-6-carboxylic acid, ethyl ester, monohydrochloride]: the Ki on benzodiazepine receptors [1] amounted to 350 nM; at benzodiazepine receptors [2], 360 nM.

Consider `CCc1cc2c3nn(-c4ccc(Cl)cc4)c(=O)c-3c[nH]c2s1` [Example E28, 2-(4-Chlorophenyl)-2,5-dihydro-7-ethyl-3H-pyrazolo[3,4-d] thieno[2,3-b]pyridin-3-one], for which, on benzodiazepine receptors [1], the Ki came out at 1.8 nM. For the compound `O=c1c2c[nH]c3ccsc3c-2nn1-c1ccc(Cl)cc1` [Example E21, 2-(4-Chlorophenyl)-2,5-dihydro-3H-pyrazolo[3,4-d]thieno [3,2-b]pyridin-3-one], the Ki worked out at 0.46 nM on benzodiazepine receptors [1] and 0.38 nM on benzodiazepine receptors [2].

With `Cc1[nH]c2ccsc2c2nn(-c3ccccc3)c(=O)c1-2` [Example E25, 2,5-Dihydro-4-methl-2-phenyl-3H-pyrazolo[3,4-d]thieno [3,2-b]pyridin-3-one], the values for the Ki on benzodiazepine receptors [1] and at benzodiazepine receptors [2] were 99 nM and 107 nM, respectively. On to `CCOC(=O)c1cnc2ccsc2c1NNc1ccc([N+](=O)[O-])cc1` [Example E3, 7-(2-(4-Nitrophenyl)hydrazino)-thieno[3,2-b]pyridine-6-carboxylic acid, ethyl ester, monohydrochloride], for which the Ki on benzodiazepine receptors [1] worked out at 1000 nM; at benzodiazepine receptors [2], 1500 nM. For the compound `O=c1c2c[nH]c3ccsc3c-2nn1-c1ccccn1` [Example E30], at benzodiazepine receptors [1], the Ki was 0.7 nM.
